Reference: patent publication US11292792B2, “Tricyclic CRBN ligands and uses thereof” (Kymera Therapeutics, Inc., priority 2018, dated 2022)

Target: His-tagged CRBN-DDB1 complex (Homo sapiens (Human), UniProt Q96SW2)
Test: Time-resolved fluorescence resonance energy transfer (TR-FRET) assay, displacement of Cy5-labeled thalidomide
Assay type: binding
Settings: read-out: CRBN HTRF IC50
Method: Equal volumes of His-tagged CRBN-DDB1 complex (56 nM) was mixed with Eu-cryptate labeled Anti-6HIS-monoclonal antibody (50× dilution from the commercial stock solution, Vender: Cisbio, Cat. #61HI2KLA) in a final buffer containing 20 mM HEPES pH 7.0, 150 mM NaCl, 0.005% Tween-20. […] The mixture were incubated at room temperature for 1 hour. FRET signals were measured on an EnVision plate reader (Perkin Elmer) by exciting at 340 nm and recording emission at both 615 nm as no FRET control and 665 nm as the FRET signals with a 60 microsecond delay. FRET efficiency was calculated as the ratio of fluorescent signals at […]. Quantitative loss of FRET efficiency as a function of compound concentrations was fitted by a four-parameter Logistic Function using GraphPad Prism 7.0 and the IC50 values were reported for each compound.
The compound numbers correspond to the compound numbers in Table 1.

Sequence of His-tagged CRBN-DDB1 complex (Q96SW2 whole entry): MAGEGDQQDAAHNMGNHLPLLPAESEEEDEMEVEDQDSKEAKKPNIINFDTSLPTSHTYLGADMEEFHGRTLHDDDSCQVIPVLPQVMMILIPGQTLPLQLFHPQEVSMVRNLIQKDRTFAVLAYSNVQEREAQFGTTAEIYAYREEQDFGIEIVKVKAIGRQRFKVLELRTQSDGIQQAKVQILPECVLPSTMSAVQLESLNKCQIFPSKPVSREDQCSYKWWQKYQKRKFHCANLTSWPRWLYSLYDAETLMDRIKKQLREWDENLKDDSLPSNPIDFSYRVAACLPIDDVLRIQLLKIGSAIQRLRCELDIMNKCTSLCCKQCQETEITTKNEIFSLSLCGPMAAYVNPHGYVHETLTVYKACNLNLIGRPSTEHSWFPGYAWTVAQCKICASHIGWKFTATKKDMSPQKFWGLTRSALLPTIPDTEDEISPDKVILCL
Sequence of His-tagged CRBN-DDB1 complex (Q16531 whole entry partner): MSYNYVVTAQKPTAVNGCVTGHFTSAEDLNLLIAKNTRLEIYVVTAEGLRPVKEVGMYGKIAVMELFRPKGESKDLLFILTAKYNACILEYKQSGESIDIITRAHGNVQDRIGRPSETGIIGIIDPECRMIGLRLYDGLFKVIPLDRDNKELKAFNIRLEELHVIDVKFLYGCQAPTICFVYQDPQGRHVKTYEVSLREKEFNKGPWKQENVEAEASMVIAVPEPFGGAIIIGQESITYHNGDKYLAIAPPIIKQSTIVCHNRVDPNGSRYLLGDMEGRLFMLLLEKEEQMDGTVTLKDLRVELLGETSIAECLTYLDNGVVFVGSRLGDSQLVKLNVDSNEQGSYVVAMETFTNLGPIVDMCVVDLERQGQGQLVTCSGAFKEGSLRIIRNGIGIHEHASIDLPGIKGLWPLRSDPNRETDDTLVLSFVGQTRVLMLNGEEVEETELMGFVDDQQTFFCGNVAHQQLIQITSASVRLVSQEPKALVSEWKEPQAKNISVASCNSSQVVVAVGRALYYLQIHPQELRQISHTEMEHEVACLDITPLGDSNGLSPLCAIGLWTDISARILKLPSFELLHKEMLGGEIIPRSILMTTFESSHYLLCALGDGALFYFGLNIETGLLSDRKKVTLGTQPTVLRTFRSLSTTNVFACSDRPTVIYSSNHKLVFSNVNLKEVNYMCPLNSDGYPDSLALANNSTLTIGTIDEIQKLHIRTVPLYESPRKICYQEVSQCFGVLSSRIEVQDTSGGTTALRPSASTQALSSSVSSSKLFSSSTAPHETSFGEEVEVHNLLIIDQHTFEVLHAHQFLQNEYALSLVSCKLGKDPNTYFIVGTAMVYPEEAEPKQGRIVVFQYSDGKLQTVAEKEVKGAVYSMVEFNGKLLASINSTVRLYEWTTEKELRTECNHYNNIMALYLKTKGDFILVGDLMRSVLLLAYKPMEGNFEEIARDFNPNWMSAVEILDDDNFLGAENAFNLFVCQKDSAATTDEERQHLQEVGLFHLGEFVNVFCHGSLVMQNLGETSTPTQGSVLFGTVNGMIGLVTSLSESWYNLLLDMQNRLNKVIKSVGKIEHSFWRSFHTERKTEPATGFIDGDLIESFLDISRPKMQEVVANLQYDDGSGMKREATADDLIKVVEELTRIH

Cc1ccnc2c1c1ccccc1n2C1CCC(=O)NC1=O (stereo not shown) [I-77, 3-(4-methyl-9H-pyrido[2,3-b]indol-9-yl)piperidine-2,6-dione] and Cc1ccc2c3ccccc3n(C3CCC(=O)NC3=O)c2n1 (stereo not shown) [I-86, 3-(2-methyl-9H-pyrido[2,3-b]indol-9-yl)piperidine-2,6-dione] cannot be ordered by IC50: less than 10 µM for the first, less than 10 µM for the second.

Nc1ccc2c3ccccc3n(C3CCC(=O)NC3=O)c2n1 (stereo not shown) [I-78] and O=C1CCC(n2c3ccccc3c3ccc(O)nc32)C(=O)N1 (stereo not shown) [I-83, 3-(2-hydroxy-9H-pyrido[2,3-b]indol-9-yl)piperidine-2,6-dione] cannot be ordered by IC50: less than 10 µM for the first, less than 10 µM for the second.

First: CNc1ccc2c3ccccc3n(C3CCC(=O)NC3=O)c2n1 (stereo not shown) [I-79, 3-(2-(methylamino)-9H-pyrido[2,3-b]indol-9-yl)piperidine-2,6-dione]
Second: CC(=O)Nc1ccc2c3ccccc3n(C3CCC(=O)NC3=O)c2n1 (stereo not shown) [I-90, N-(9-(2,6-dioxopiperidin-3-yl)-9H-pyrido[2,3-b]indol-2-yl)acetamide]
The IC50 of the first is lower: less than 10 µM for the first, 10 to 30 µM for the second.

First: CN(C)c1ccc2c3ccccc3n(C3CCC(=O)NC3=O)c2n1 (stereo not shown) [I-80, 3-(2-(dimethylamino)-9H-pyrido[2,3-b]indol-9-yl)piperidine-2,6-dione]
Second: O=C1CCC(n2c3ccccc3c3ccc(F)nc32)C(=O)N1 (stereo not shown) [I-84]
The IC50 of the first is higher: 10 to 30 µM for the first, less than 10 µM for the second.

N#Cc1ccc2c3ccccc3n(C3CCC(=O)NC3=O)c2n1 (stereo not shown) [I-81, 9-(2,6-dioxopiperidin-3-yl)-9H-pyrido[2,3-b]indole-2-carbonitrile] and COc1ccc2c3ccccc3n(C3CCC(=O)NC3=O)c2n1 (stereo not shown) [I-82] fall in the same range of IC50: 10 to 30 µM for the first, 10 to 30 µM for the second.

First: O=C1CCC(n2c3ccccc3c3ccc(C(F)(F)F)nc32)C(=O)N1 (stereo not shown) [I-85]
Second: NCc1ccc2c3ccccc3n(C3CCC(=O)NC3=O)c2n1 (stereo not shown) [I-91, 3-(2-(aminomethyl)-9H-pyrido[2,3-b]indol-9-yl)piperidine-2,6-dione]
The IC50 of the first is lower: 10 to 30 µM for the first, 30 to 100 µM for the second.

O=C1CCC(n2c3ccccc3c3ncsc32)C(=O)N1 (stereo not shown) [I-87] and O=C1CCC(n2c3ccccc3c3c(Br)csc32)C(=O)N1 (stereo not shown) [I-89, 3-(3-bromo-8H-thieno[2,3-b]indol-8-yl)piperidine-2,6-dione] cannot be ordered by IC50: less than 10 µM for the first, less than 10 µM for the second.

O=C1CCC(n2c3ccc(Br)cc3c3ccsc32)C(=O)N1 (stereo not shown) [I-88] and O=C1CCC(n2c3cccc(Br)c3c3ccsc32)C(=O)N1 (stereo not shown) [I-103, 3-(4-bromo-8H-thieno[2,3-b]indol-8-yl)piperidine-2,6-dione] cannot be ordered by IC50: less than 10 µM for the first, less than 10 µM for the second.

First: O=C1CCC(n2c3ccc(Br)cc3c3ccc(F)nc32)C(=O)N1 (stereo not shown) [I-92, 3-(6-bromo-2-fluoro-9H-pyrido[2,3-b]indol-9-yl)piperidine-2,6-dione]
Second: O=C1CCC(n2c3cc(Br)ccc3c3cccnc32)C(=O)N1 (stereo not shown) [I-102, 3-3-(7-Bromopyrido[2,3-b]indol-9-yl)piperidine-2,6-dione]
The IC50 of the first is lower: less than 10 µM for the first, 10 to 30 µM for the second. The first is the more potent here.

First: O=C1CCC(n2c3ccccc3c3c(Cl)csc32)C(=O)N1 (stereo not shown) [I-93, 3-(3-chloro-8H-thieno[2,3-b]indol-8-yl)piperidine-2,6-dione]
Second: O=C1CCC(n2c3ccccc3c3ccnc(O)c32)C(=O)N1 (stereo not shown) [I-105]
The IC50 of the first is lower: less than 10 µM for the first, 10 to 30 µM for the second. The first is the more potent here.

O=C1CCC(n2ccn3c4ccccc4nc23)C(=O)N1 (stereo not shown) [I-94] and O=C1CCC(n2c3ccccc3n3ccnc23)C(=O)N1 (stereo not shown) [I-99] fall in the same range of IC50: 30 to 100 µM for the first, 30 to 100 µM for the second.

O=C1CCC(n2c3cccc(F)c3c3cccnc32)C(=O)N1 (stereo not shown) [I-100] and O=C1CCC(n2c3cc(F)ccc3c3cccnc32)C(=O)N1 (stereo not shown) [I-101] cannot be ordered by IC50: less than 10 µM for the first, less than 10 µM for the second.

Work on O=C1CCC(n2c3cc(Cl)ccc3c3cccnc32)C(=O)N1 (stereo not shown) [I-106, 3-(7-chloro-9H-pyrido[2,3-b]indol-9-yl)piperidine-2,6-dione] yielded an IC50 of 10 to 30 µM.
